This experiment concerns luciferase-expressing artificial recombinant rotavirus. The experiment in a line: Screening test for anti-rotavirus drug using luciferase-expressing rotavirus in CV-1 cells (luminescence). The format is cell-based, simian rotavirus. The method, then:
CV-1 cells were seeded on 96-well culture plates at 1×10^5 cells/well on the previous day of infection. The CV-1 cells were infected with wild-type SA11 or the luciferase-expressing artificial recombinant rotavirus produced in Example 4 at an MOI of 0.001. After viral adsorption at 37° C. for 1 hour, the culture supernatant was removed, and DMEM (without FBS and with 0.5 μg/mL trypsin) containing 0, 1, 5, 10, 50, 100 or 200 μM ribavirin (Sigma-Aldrich) was added. Incubation was performed at 37° C. for 14 hours. After that, the substrate stock solution of Nano-Glo Luciferase Assay System (trade name, Promega) was added to the culture medium, and luminescence was detected with an in vivo imaging system (IVIS Spectrum, manufactured by Xenogen).

As for `NC(=O)c1ncn([C@@H]2O[C@H](CO)[C@@H](O)[C@H]2O)n1` [ribavirin], for the setting “MOI of 0.001, 0, 1, 5, 10, 50, 100 or 200 μM ribavirin, 14 hours”, the “luminescence intensity (viral proliferation inhibitory effect)” value is on record as “decreased in a ribavirin concentration-dependent manner”. In addition, under “MOI of 0.001, 14 hours”, the “ribavirin concentration at which no luminescence was observed” value is not below 50 µM.

The values above are taken from patent US11707516B2, “Method for producing artificial recombinant rotavirus” (Osaka University, priority 2016, dated 2023).
